Strand notation (5' to 3'): a small letter for the sugar, then the base; units joined by * are phosphorothioate-linked, units joined directly phosphodiester-linked; [ ] holds rarer units or linkages, { } end groups; capitals alone tell only the bases. e = 2'-O-(2-methoxyethyl) (MOE); [5mC] = 5-methylcytosine; d = 2'-deoxy (DNA)
Columns and labels:
Factor 11 mRNA = Factor 11 mRNA in cynomolgus monkey liver, day 55 (Example 46); type: in vivo, cynomolgus monkeys; conditions: for % inhibition of Factor 11 mRNA in liver relative to the PBS control: 25 mg/kg subcutaneously, primer probe set LTS00301; for Factor 11 mRNA in liver vs PBS control: cynomolgus monkeys, 25 mg/kg
Method: Groups, each consisting of two male and two female monkeys, were injected subcutaneously with 25 mg/kg of ISIS 416850, ISIS 449709, ISIS 445522, ISIS 449710, ISIS 449707, ISIS 449711, ISIS 449708, 416858, and ISIS 445531. Antisense oligonucleotide was administered to the monkeys at 25 mg/kg three times per week for week 1 and 25 mg/kg twice per week for weeks 2 to 8. A control group, consisting of two male and two female monkeys was injected subcutaneously with PBS according to the same dosing regimen. Body weights were taken 14 days and 7 days before the start of treatment and were then measured weekly throughout the treatment period. Blood samples were collected 14 days and 5 days before the start of treatment and subsequently several times during the dosing regimen for PT and aPTT measurements, and measurement of various hematologic factors. On day 55, the monkeys were euthanized by exsanguination while under deep anesthesia, and organs harvested for further analysis.
On day 55, RNA was extracted from liver tissue for real-time PCR analysis of Factor 11 using primer probe set LTS00301. Results are presented as percent inhibition of Factor 11, relative to PBS control.

human Factor 11 mRNA [1] = test: Dose-dependent inhibition of human Factor 11 in HepG2 cells, lipofectin 9.375-75 nM (Example 4); type: cell-based; conditions: for percent inhibition of Factor 11 at 9.375 nM / percent inhibition of Factor 11 at 18.75 nM / percent inhibition of Factor 11 at 37.5 nM / percent inhibition of Factor 11 at 75 nM: relative to untreated control cells
Summary of the method: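 HepG2 cells transfected via lipofectin with antisense oligonucleotide at 9.375, 18.75, 37.5 or 75 nM for about 16 h. Factor 11 mRNA quantified by real-time RT-PCR (primer probe set RTS 2966) and normalized to total RNA (RIBOGREEN). Results expressed as percent inhibition versus untreated cells.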

human Factor 11 mRNA [2] = test: Dose-dependent inhibition of human Factor 11 in HepG2 cells, electroporation 0.7-20 uM (Example 4); type: cell-based; conditions: for percent inhibition of Factor 11 at 0.7 μM / percent inhibition of Factor 11 at 2.2 μM / percent inhibition of Factor 11 at 6.7 μM / percent inhibition of Factor 11 at 20 μM: relative to untreated control cells
Summary of the method: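 HepG2 cells electroporated with antisense gapmers at 0.7, 2.2, 6.7 and 20 μM, treated ~16 h. Factor 11 mRNA quantified by qRT-PCR (primer probe set RTS 2966), normalised to RIBOGREEN total RNA; expressed as percent inhibition versus untreated control cells.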

human Factor 11 mRNA [3] = test: Antisense inhibition of human Factor 11 in HepG2 cells, electroporation, 8,000 nM (Example 30); type: cell-based; conditions: electroporation, 8,000 nM antisense oligonucleotide
Summary of the method: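 HepG2 cells electroporated with 8,000 nM 5-10-5, 5-8-5 or 6-8-6 MOE gapmers (phosphorothioate, 5-methylcytidine), ~24 h. Factor 11 mRNA quantified by qRT-PCR, normalised to RIBOGREEN total RNA. Reported as percent inhibition versus untreated cells.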

Substance: 416850 (antisense TGCACAGTTTCTGGCAGGCC; 5-10-5 gapmer, further chemistry not given here) [compound 416850]
- % inhibition of Factor 11 mRNA in liver relative to the PBS control (Factor 11 mRNA): 68%
- IC50 (human Factor 11 mRNA [1]): 29 nM
- percent inhibition of Factor 11 at 9.375 nM (human Factor 11 mRNA [1]): 4%
- percent inhibition of Factor 11 at 18.75 nM (human Factor 11 mRNA [1]): 30%
- percent inhibition of Factor 11 at 37.5 nM (human Factor 11 mRNA [1]): 67%
- percent inhibition of Factor 11 at 75 nM (human Factor 11 mRNA [1]): 84%
- IC50 (human Factor 11 mRNA [2]): 3400 nM
- percent inhibition of Factor 11 at 0.7 μM (human Factor 11 mRNA [2]): 14%
- percent inhibition of Factor 11 at 2.2 μM (human Factor 11 mRNA [2]): 25%
- percent inhibition of Factor 11 at 6.7 μM (human Factor 11 mRNA [2]): 81%
- percent inhibition of Factor 11 at 20 μM (human Factor 11 mRNA [2]): 91%
- Percent inhibition of human Factor 11 mRNA levels (human Factor 11 mRNA [3]): 91%

Substance: 416858 (antisense ACGGCATTGGTGCACAGTTT; 5-10-5 gapmer, further chemistry not given here) [compound 416858]
- % inhibition of Factor 11 mRNA in liver relative to the PBS control (Factor 11 mRNA): 89%
- IC50 (human Factor 11 mRNA [1]): 33 nM
- percent inhibition of Factor 11 at 9.375 nM (human Factor 11 mRNA [1]): 0%
- percent inhibition of Factor 11 at 18.75 nM (human Factor 11 mRNA [1]): 28%
- percent inhibition of Factor 11 at 37.5 nM (human Factor 11 mRNA [1]): 54%
- percent inhibition of Factor 11 at 75 nM (human Factor 11 mRNA [1]): 82%
- IC50 (human Factor 11 mRNA [2]): 5300 nM
- percent inhibition of Factor 11 at 0.7 μM (human Factor 11 mRNA [2]): 5%
- percent inhibition of Factor 11 at 2.2 μM (human Factor 11 mRNA [2]): 20%
- percent inhibition of Factor 11 at 6.7 μM (human Factor 11 mRNA [2]): 56%
- percent inhibition of Factor 11 at 20 μM (human Factor 11 mRNA [2]): 86%
- Percent inhibition of human Factor 11 mRNA levels (human Factor 11 mRNA [3]): 90%

Substance: 445522 (antisense eG*e[5mC]*eA*e[5mC]*eA*dG*dT*dT*dT*d[5mC]*dT*dG*dG*e[5mC]*eA*eG*eG*e[5mC]) [compound 445522]
- % inhibition of Factor 11 mRNA in liver relative to the PBS control (Factor 11 mRNA): 89%
- Percent inhibition of human Factor 11 mRNA levels (human Factor 11 mRNA [3]): 91%

Substance: 445531 (antisense eG*eG*e[5mC]*eA*eT*dT*dG*dG*dT*dG*d[5mC]*dA*d[5mC]*eA*eG*eT*eT*eT) [compound 445531]
- % inhibition of Factor 11 mRNA in liver relative to the PBS control (Factor 11 mRNA): 66%
- Percent inhibition of human Factor 11 mRNA levels (human Factor 11 mRNA [3]): 90%

Substance: ISIS 416850: MOE gapmer, nucleobases 1275 to 1318 of SEQ ID NO: 1 (Table 8) (antisense TGCACAGTTTCTGGCAGGCC; MOE gapmer, wing and gap sizes not given here)
- Factor 11 mRNA in liver vs PBS control (Factor 11 mRNA): significant reduction of Factor 11 mRNA

Substance: ISIS 416858: MOE gapmer, nucleobases 1275 to 1318 of SEQ ID NO: 1 (Table 8) (antisense ACGGCATTGGTGCACAGTTT; MOE gapmer, wing and gap sizes not given here)
- Factor 11 mRNA in liver vs PBS control (Factor 11 mRNA): significant reduction of Factor 11 mRNA

Substance: ISIS 445522: 5-8-5 or 6-8-6 MOE microwalk gapmer (Table 44) (antisense eG*e[5mC]*eA*e[5mC]*eA*dG*dT*dT*dT*d[5mC]*dT*dG*dG*e[5mC]*eA*eG*eG*e[5mC])
- Factor 11 mRNA in liver vs PBS control (Factor 11 mRNA): significant reduction of Factor 11 mRNA

Substance: ISIS 445531: 5-8-5 or 6-8-6 MOE microwalk gapmer (Table 44) (antisense eG*eG*e[5mC]*eA*eT*dT*dG*dG*dT*dG*d[5mC]*dA*d[5mC]*eA*eG*eT*eT*eT)
- Factor 11 mRNA in liver vs PBS control (Factor 11 mRNA): significant reduction of Factor 11 mRNA

Substance: ISIS 449707: 3-8-3, 4-8-4, 2-10-2, 3-10-3 or 4-10-4 MOE microwalk gapmer (Table 46) (antisense e[5mC]*eA*e[5mC]*eA*dG*dT*dT*dT*d[5mC]*dT*dG*dG*e[5mC]*eA*eG*eG)
- Factor 11 mRNA in liver vs PBS control (Factor 11 mRNA): significant reduction of Factor 11 mRNA

Substance: ISIS 449708: 3-8-3, 4-8-4, 2-10-2, 3-10-3 or 4-10-4 MOE microwalk gapmer (Table 46) (antisense eA*e[5mC]*eA*dG*dT*dT*dT*d[5mC]*dT*dG*dG*e[5mC]*eA*eG)
- Factor 11 mRNA in liver vs PBS control (Factor 11 mRNA): significant reduction of Factor 11 mRNA

Substance: ISIS 449709: 3-8-3, 4-8-4, 2-10-2, 3-10-3 or 4-10-4 MOE microwalk gapmer (Table 46) (antisense eG*e[5mC]*eA*e[5mC]*dA*dG*dT*dT*dT*d[5mC]*dT*dG*dG*d[5mC]*eA*eG*eG*e[5mC])
- Factor 11 mRNA in liver vs PBS control (Factor 11 mRNA): significant reduction of Factor 11 mRNA

Substance: ISIS 449710: 3-8-3, 4-8-4, 2-10-2, 3-10-3 or 4-10-4 MOE microwalk gapmer (Table 46) (antisense e[5mC]*eA*e[5mC]*dA*dG*dT*dT*dT*d[5mC]*dT*dG*dG*d[5mC]*eA*eG*eG)
- Factor 11 mRNA in liver vs PBS control (Factor 11 mRNA): significant reduction of Factor 11 mRNA

From patent US20230263822A1, “MODULATION OF FACTOR 11 EXPRESSION” (Ionis Pharmaceuticals, Inc., priority 2008, published 2023)
